Values of other authors, collected in patent US7265248B1, “Compositions and methods for the treatment of malaria” (Technology Innovations, LLC, priority 2005, dated 2007).
Like-named read-outs stand apart in the source and are kept apart here. Values belong to the compound of their own block, whether it stands above or below them.

Assays:
[1] = in vivo
[2] = not given; remark: listed apart in the source
alpha/beta II = target: T1, alpha/beta II (Bos taurus, UniProt Q6B856); details: compared with unfractionated tubulin
T1 construct: microtubules were prepared from bovine cerebra by the method of Fellous et al and tubulin was purified therefrom by phosphocellulose chromatography; from tissue; host or cells: bovine cerebra (brain)

alpha/beta III = target: T2, alpha/beta III (Bos taurus, UniProt Q2T9S0); details: compared with unfractionated tubulin
T2 construct: microtubules were prepared from bovine cerebra by the method of Fellous et al and tubulin was purified therefrom by phosphocellulose chromatography; from tissue; host or cells: bovine cerebra (brain)

alpha/beta IV = target: T3, alpha/beta IV (Bos taurus, UniProt Q3ZBU7); details: compared with unfractionated tubulin, alpha/beta II, alpha/beta III
T3 construct: microtubules were prepared from bovine cerebra by the method of Fellous et al and tubulin was purified therefrom by phosphocellulose chromatography; from tissue; host or cells: bovine cerebra (brain)

alpha/beta III dimer = alpha/beta III dimer (Bos taurus, UniProt Q2T9S0); details: compared with alpha/beta II and alpha/beta IV dimers
Chain of alpha/beta III dimer (Q2T9S0 whole entry): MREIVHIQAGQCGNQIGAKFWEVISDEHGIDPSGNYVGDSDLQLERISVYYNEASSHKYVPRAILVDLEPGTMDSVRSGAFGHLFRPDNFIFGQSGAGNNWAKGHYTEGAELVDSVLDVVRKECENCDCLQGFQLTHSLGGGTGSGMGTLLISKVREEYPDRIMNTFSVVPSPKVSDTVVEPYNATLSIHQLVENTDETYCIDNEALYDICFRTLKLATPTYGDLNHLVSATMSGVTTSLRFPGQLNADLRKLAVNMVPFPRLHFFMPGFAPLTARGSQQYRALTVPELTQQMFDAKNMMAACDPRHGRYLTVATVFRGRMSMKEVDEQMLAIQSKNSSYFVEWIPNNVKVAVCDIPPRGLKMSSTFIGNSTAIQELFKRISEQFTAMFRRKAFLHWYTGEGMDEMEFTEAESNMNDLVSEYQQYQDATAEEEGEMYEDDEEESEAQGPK
Chain of alpha/beta III dimer (P81947 whole entry, further chain): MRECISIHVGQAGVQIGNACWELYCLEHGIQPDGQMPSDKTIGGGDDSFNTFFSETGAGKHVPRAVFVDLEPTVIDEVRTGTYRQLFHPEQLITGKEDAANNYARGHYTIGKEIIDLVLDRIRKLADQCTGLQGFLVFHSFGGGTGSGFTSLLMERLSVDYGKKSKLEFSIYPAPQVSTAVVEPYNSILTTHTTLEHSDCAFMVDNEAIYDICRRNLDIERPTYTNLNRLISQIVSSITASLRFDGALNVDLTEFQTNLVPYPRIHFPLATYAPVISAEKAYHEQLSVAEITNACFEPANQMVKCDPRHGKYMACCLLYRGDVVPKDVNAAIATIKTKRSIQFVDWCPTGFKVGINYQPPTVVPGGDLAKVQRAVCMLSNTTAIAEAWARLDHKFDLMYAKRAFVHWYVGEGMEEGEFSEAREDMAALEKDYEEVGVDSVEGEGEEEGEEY

T2 sequence (Q2T9S0 whole entry): as the sequence (Q2T9S0 whole entry) above
T2 sequence (P81947 whole entry, further chain): as the sequence (P81947 whole entry, further chain) above
T1 sequence (P81947 whole entry): as the sequence (P81947 whole entry, further chain) above
T1 sequence (Q6B856 whole entry): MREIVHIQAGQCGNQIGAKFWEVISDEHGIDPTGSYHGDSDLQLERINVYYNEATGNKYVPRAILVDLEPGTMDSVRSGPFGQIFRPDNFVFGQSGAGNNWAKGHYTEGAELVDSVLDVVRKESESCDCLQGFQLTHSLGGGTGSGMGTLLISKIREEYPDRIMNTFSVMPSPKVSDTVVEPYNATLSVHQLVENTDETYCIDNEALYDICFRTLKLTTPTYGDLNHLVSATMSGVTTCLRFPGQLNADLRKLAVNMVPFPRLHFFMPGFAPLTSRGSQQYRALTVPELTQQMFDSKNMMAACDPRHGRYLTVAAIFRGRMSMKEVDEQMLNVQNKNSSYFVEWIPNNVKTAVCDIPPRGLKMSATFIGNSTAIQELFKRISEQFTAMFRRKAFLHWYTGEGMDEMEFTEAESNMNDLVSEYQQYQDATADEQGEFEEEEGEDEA
T3 sequence (P81947 whole entry): as the sequence (P81947 whole entry, further chain) above
T3 sequence (Q3ZBU7 whole entry): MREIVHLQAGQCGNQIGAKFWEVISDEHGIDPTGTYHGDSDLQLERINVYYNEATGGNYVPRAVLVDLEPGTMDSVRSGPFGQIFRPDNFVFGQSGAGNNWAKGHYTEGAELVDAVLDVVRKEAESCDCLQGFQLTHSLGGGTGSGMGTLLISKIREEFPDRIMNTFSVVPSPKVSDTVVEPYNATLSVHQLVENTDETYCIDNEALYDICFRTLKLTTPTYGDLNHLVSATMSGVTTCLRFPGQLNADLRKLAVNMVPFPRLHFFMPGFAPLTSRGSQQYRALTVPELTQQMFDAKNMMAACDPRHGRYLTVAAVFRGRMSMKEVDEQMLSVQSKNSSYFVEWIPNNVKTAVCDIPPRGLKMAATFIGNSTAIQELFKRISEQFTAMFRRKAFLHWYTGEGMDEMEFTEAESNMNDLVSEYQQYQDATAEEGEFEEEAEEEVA

- half life (in vivo): 80 to 95 h
SMILES: CCc1nc(N)nc(N)c1-c1ccc(Cl)cc1 [pyrimethamine]
- side effects [1]: blood dyscrasias

- half life (in vivo): 36 to 72 h
- pharmacokinetic profile (in words): double peaking
- protein binding [2]: 99%
SMILES: O=C1C(O)=C([C@H]2CC[C@H](c3ccc(Cl)cc3)CC2)C(=O)c2ccccc21 [atovaquone]
- side effects [1]: rash, vomiting, diarrhea, fever and headache

Second part, the compound before the results:

SMILES: COc1cc(OC)c(Cl)c(-n2c(-c3ccccc3)cc(=O)c(C)c2-c2ccc(F)cc2)c1 [IKP-104]
- apparent dissociation constant for the high-affinity site (Kd1) (alpha/beta II): lower than that of unfractionated tubulin
- apparent dissociation constant for the high-affinity site (Kd1) (alpha/beta III): lower than that of unfractionated tubulin
- apparent dissociation constant for the high-affinity site (Kd1) (alpha/beta IV): greater than those of unfractionated tubulin, alpha/beta II, or alpha/beta III

SMILES: CCN(CC)CCCC(C)Nc1ccnc2cc(Cl)ccc12 (stereo not shown) [chloroquine]
- volume of distribution (in vivo): over 100 l/kg
- half life (in words): days to weeks
- side effects [1]: cardiovascular and CNS effects

SMILES: CC(=O)O[C@H]1C(=O)[C@@]2(C)[C@H]([C@H](OC(=O)c3ccccc3)[C@]3(O)C[C@H](OC(=O)[C@H](O)[C@@H](NC(=O)c4ccccc4)c4ccccc4)C(C)=C1C3(C)C)[C@]1(OC(C)=O)CO[C@@H]1C[C@@H]2O [paclitaxel]
- interaction with ligand (alpha/beta III dimer): much less strongly

SMILES: COc1cc(NC(C)CCCN)c2ncccc2c1 (stereo not shown) [primaquine]
- side effects [1]: blood dyscrasias

SMILES: OC(c1cc(C(F)(F)F)nc2c(C(F)(F)F)cccc12)C1CCCCN1 (stereo not shown) [mefloquine]
- volume of distribution (in words): several times the volume of body water
- protein binding [2]: ~98%
